# Legend:
# [1] = system: transplanted human mammary carcinoma which expresses epidermal growth factor receptor tyrosine kinase (EGFR); conditions: EGFR-expressing carcinoma in athymic nude mice; cited from earlier work
# [2] = system: another carcinoma which does not express the EGF receptor; conditions: cited from earlier work
# [3] = hygroscopic stability of the sesquisuccinate complex; type: physicochemical; conditions: solid complex; relevant to weight changes during manufacture of capsules or tablets
Compound,growth of transplanted human mammary carcinoma [1],growth of carcinoma not expressing the EGF receptor [2],hygroscopic stability [3]
O=CN/C=C/c1cc(O)ccc1O [erbstatin],selectively attenuates the growth,without effect on the growth,–
"COCC(=O)NC/C=C/c1ccc2ncnc(Nc3ccc(Oc4ccc(C)nc4)c(C)c3)c2c1 [sesquisuccinate complex, E-2-Methoxy-N-(3-{4-[3-methyl-4-(6-methyl-pyridin-3-yloxy)-phenylamino]-quinazolin-6-yl}-allyl)-acetamide]",–,–,substantially hygroscopically stable
